Test results: the NIST ThermoML archive (doi:10.1016/j.jct.2005.09.003)
Numbers after ± are expanded uncertainties.

How the values were obtained:
[1] = Liquid
[2] = refractive index (Na D-line) (dimensionless); conditions: 298.15 K; 101.33 kPa; Liquid; Standard Abbe refractometry

CCCCCCCl [1-chlorohexane]
mass density [kg/m3], [1]
Conditions | 298.15 K | 308.15 K | 318.15 K | 328.15 K
100 kPa | 873.42 ± 0.43 | 863.99 ± 0.45 | 854.58 ± 0.46 | 845.18 ± 0.48
2130 kPa | 874.73 ± 0.46 | 865.56 ± 0.48 | 856.27 ± 0.49 | 847.12 ± 0.51
4150 kPa | 876.45 ± 0.49 | 867.35 ± 0.51 | 858.19 ± 0.52 | 849.17 ± 0.54
6180 kPa | 878.31 ± 0.51 | 869.15 ± 0.53 | 860.06 ± 0.55 | 851.16 ± 0.57
8210 kPa | 879.79 ± 0.53 | 870.9 ± 0.56 | 861.91 ± 0.58 | 853.13 ± 0.61
10230 kPa | 881.44 ± 0.56 | 872.61 ± 0.59 | 863.73 ± 0.61 | 855.02 ± 0.64
11250 kPa | 882.22 ± 0.57 | 873.47 ± 0.6 | 864.62 ± 0.63 | 855.98 ± 0.66
12260 kPa | 883.01 ± 0.59 | 874.3 ± 0.62 | 865.5 ± 0.65 | 856.91 ± 0.68
14290 kPa | 884.61 ± 0.62 | 875.96 ± 0.65 | 867.28 ± 0.68 | 858.76 ± 0.71
16310 kPa | 886.16 ± 0.64 | 877.59 ± 0.68 | 869 ± 0.71 | 860.59 ± 0.74
18340 kPa | 887.68 ± 0.67 | 879.2 ± 0.7 | 870.66 ± 0.74 | 862.35 ± 0.78
20370 kPa | 889.18 ± 0.69 | 880.78 ± 0.73 | 872.33 ± 0.77 | 864.12 ± 0.81
22390 kPa | 890.65 ± 0.72 | 882.35 ± 0.76 | 873.95 ± 0.8 | 865.82 ± 0.84
24420 kPa | 892.14 ± 0.74 | 883.86 ± 0.79 | 875.54 ± 0.83 | 867.51 ± 0.87
26450 kPa | 893.54 ± 0.77 | 885.35 ± 0.81 | 877.12 ± 0.86 | 869.18 ± 0.9
28470 kPa | 894.96 ± 0.79 | 886.84 ± 0.84 | 878.67 ± 0.89 | 870.8 ± 0.93
29490 kPa | 895.65 ± 0.8 | 887.56 ± 0.85 | 879.43 ± 0.9 | 871.6 ± 0.95
30500 kPa | 896.32 ± 0.81 | 888.21 ± 0.86 | 880.19 ± 0.91 | 872.4 ± 0.96
32530 kPa | 897.71 ± 0.84 | 889.73 ± 0.89 | 881.7 ± 0.94 | 873.95 ± 0.99
34550 kPa | 899.05 ± 0.86 | 891.14 ± 0.91 | 883.17 ± 0.96 | 875.49 ± 1
36580 kPa | 900.38 ± 0.88 | 892.52 ± 0.93 | 884.63 ± 0.99 | 877.05 ± 1
38600 kPa | 901.69 ± 0.9 | 893.9 ± 0.96 | 886.04 ± 1 | 878.53 ± 1.1
39620 kPa | 902.33 ± 0.91 | 894.55 ± 0.97 | 886.76 ± 1 | 879.31 ± 1.1

Conditions | refractive index
[2] | 1.4172 ± 0.0004

CCCCCCCC [octane]
mass density [kg/m3], [1]
Conditions | 298.15 K | 308.15 K | 318.15 K | 328.15 K
100 kPa | 698.64 ± 0.61 | 690.43 ± 0.63 | 682.47 ± 0.65 | 674.53 ± 0.66
2130 kPa | 700.14 ± 0.71 | 692.18 ± 0.73 | 684.48 ± 0.74 | 676.49 ± 0.76
4150 kPa | 701.87 ± 0.8 | 694 ± 0.82 | 686.45 ± 0.83 | 678.56 ± 0.85
6180 kPa | 703.56 ± 0.88 | 695.79 ± 0.9 | 688.29 ± 0.92 | 680.59 ± 0.95
8210 kPa | 705.17 ± 0.97 | 697.53 ± 0.99 | 690.17 ± 1 | 682.57 ± 1
10230 kPa | 706.78 ± 1.1 | 699.24 ± 1.1 | 691.97 ± 1.1 | 684.51 ± 1.1
11250 kPa | 707.58 ± 1.1 | 700.07 ± 1.1 | 692.85 ± 1.1 | 685.44 ± 1.2
12260 kPa | 708.37 ± 1.1 | 700.88 ± 1.2 | 693.77 ± 1.2 | 686.38 ± 1.2
14290 kPa | 709.9 ± 1.2 | 702.55 ± 1.2 | 695.49 ± 1.3 | 688.23 ± 1.3
16310 kPa | 711.41 ± 1.3 | 704.13 ± 1.3 | 697.2 ± 1.4 | 690.03 ± 1.4
18340 kPa | 712.9 ± 1.4 | 705.71 ± 1.4 | 698.86 ± 1.5 | 691.76 ± 1.5
20370 kPa | 714.36 ± 1.5 | 707.23 ± 1.5 | 700.47 ± 1.5 | 693.5 ± 1.6
22390 kPa | 715.78 ± 1.6 | 708.76 ± 1.6 | 702.07 ± 1.6 | 695.17 ± 1.7
24420 kPa | 717.18 ± 1.6 | 710.22 ± 1.7 | 703.61 ± 1.7 | 696.82 ± 1.8
26450 kPa | 718.56 ± 1.7 | 711.66 ± 1.8 | 705.13 ± 1.8 | 698.41 ± 1.8
28470 kPa | 719.9 ± 1.8 | 713.09 ± 1.8 | 706.66 ± 1.9 | 699.98 ± 1.9
29490 kPa | 720.57 ± 1.8 | 713.77 ± 1.9 | 707.38 ± 1.9 | 700.75 ± 2
30500 kPa | 721.22 ± 1.9 | 714.47 ± 1.9 | 708.13 ± 2 | 701.53 ± 2
32530 kPa | 722.53 ± 2 | 715.84 ± 2 | 709.54 ± 2 | 703.01 ± 2.1
34550 kPa | 723.82 ± 2 | 717.18 ± 2.1 | 710.96 ± 2.1 | 704.5 ± 2.2
36580 kPa | 725.06 ± 2.1 | 718.5 ± 2.2 | 712.33 ± 2.2 | 705.96 ± 2.2
38600 kPa | 726.32 ± 2.2 | 719.82 ± 2.2 | 713.68 ± 2.3 | 707.36 ± 2.3
39620 kPa | 726.94 ± 2.2 | 720.45 ± 2.3 | 714.38 ± 2.3 | 708.06 ± 2.4

Conditions | refractive index
[2] | 1.395 ± 0.0004
